Consider twelve molecules from patent publication US12358915B2, “METTL3 inhibitory compounds” (STORM THERAPEUTICS LTD., priority 2019, dated 2025).

Molecules are shown by their SMILES. Like-named read-outs stand apart in the source and are kept apart here.

In one experiment the test system is MOLM-13 cells. Description: MOLM13 CTG - analysis of cell proliferation (Cell Titre Glo). The experiment is classed as cell-based. The settings on record: Homo sapiens, geometric mean, read-out: CTG MOLM13 cells IC50 GEOMEAN.
Another experiment relates to Caov-3 cells. Put plainly: Caov3 CTG assay - proliferation assay. The following applies: Homo sapiens, 120 hours treatment, 30 μM top concentration, CellTiter-Glo, geometric mean, read-out: CTG Caov3 cells IC50 GEOMEAN. The format is cell-based. For orientation: ATP-based viability assays read luminescence as a measure of living cells.
A further experiment addresses T1, METTL3/14 (Homo sapiens, UniProt Q86U44).
T1 construct: The enzyme used was full-length his-tagged METTL3; His; made in house
Put plainly: METTL3/14 methyltransferase assay (METTL3_14 RFMS, RapidFire mass spectrometry).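 Note: recombinant His-tagged METTL3 with FLAG-tagged METTL14 from baculovirus, SAH product quantified by mass spectrometry against isotope-labelled internal standards, 60 min at room temperature, scaled between no-RNA and DMSO-only wells.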 The experiment is classed as biochemical. The settings on record: read-out: METTL3_14 RFMS IC50.

The mark [1] stands for this setting: 5 nM METTL3/14, 0.2 μM RNA substrate, 0.5 μM SAM, lower limit of the assay IC50=5 nM, Compounds 266-351.

T1 sequence (Q86U44 whole entry): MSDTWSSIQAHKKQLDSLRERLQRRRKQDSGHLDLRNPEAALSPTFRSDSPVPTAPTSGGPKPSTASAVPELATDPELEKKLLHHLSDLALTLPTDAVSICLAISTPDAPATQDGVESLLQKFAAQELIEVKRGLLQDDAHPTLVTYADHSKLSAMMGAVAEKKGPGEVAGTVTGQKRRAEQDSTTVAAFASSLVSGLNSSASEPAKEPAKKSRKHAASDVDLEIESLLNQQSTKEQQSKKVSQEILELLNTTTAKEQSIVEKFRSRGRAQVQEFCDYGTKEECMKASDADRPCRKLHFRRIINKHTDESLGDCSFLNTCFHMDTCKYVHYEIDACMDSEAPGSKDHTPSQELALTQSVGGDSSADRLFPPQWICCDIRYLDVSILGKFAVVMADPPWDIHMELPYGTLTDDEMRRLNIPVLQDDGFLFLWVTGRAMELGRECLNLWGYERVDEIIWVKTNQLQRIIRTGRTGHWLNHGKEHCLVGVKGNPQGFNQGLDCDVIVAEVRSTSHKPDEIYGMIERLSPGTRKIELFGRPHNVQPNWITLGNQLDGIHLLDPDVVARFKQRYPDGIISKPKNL
T1 sequence (Q9HCE5 whole entry partner): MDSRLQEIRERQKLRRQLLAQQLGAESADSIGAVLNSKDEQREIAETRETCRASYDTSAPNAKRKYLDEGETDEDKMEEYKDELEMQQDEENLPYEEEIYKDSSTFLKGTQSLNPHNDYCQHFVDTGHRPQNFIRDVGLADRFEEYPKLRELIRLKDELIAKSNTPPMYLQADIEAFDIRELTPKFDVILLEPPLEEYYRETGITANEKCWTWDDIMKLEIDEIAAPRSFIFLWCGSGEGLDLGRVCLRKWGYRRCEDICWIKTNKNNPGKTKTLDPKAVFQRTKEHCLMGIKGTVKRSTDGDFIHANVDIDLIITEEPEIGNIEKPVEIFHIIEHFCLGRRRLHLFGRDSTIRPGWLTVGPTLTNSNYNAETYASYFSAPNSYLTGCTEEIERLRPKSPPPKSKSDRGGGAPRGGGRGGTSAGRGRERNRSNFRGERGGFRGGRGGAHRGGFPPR
Procedure for Caov-3 cells: Upon treatment, Coav-3 cells were incubated for 10 min at RT with the CellTiter-Glo reagent (G7571, Promega). Measurement of the luminescence signal was performed on a microplate reader (Ensight, PerkinElmer).
Procedure for METTL3/14: The enzyme used was full-length his-tagged METTL3 co-expressed with full length FLAG-tagged METTL14 in a baculovirus expression system. […] After termination, plates were sealed, centrifuged and stored at 4° C. until analysis. […] Mass Spectrometry Analysis RNA methyltransferase activity was measured label free using the RapidFireTM mass spectrometry (RF/MS) platform. Stopped and stable assay plates were analyzed on the Agilent RF300 integrated autosampler/solid-phase extraction (SPE) system coupled to an ABSciex 4000 mass spectrometer for the generation of the product S-adenosyl homocysteine (SAH) and normalized to the ratio of signal of the two internal product standards, respectively. Solvent A was water containing 0.1% (v/v) TCA. Solvent B was acetonitrile/0.1% ammonium acetate (8:2, v/v). More specifically, plates were centrifuged at 4350 rpm for 10 min, samples were aspirated under vacuum for 600 ms, then loaded onto a C18 solid-phase extraction cartridge and washed for 3 s with solvent A at a flow rate of 1.5 mL/min. Retained product and internal standards were eluted with solvent B at a flow rate of 1 mL/min for 3 s and finally the cartridge was reequilibrated with solvent A for 500 ms.

Broadly, the IC50 is the concentration that inhibits the measured activity by half. `Fc1ccc(-c2cn(Cc3cn4cc(CNCC5CCCCC5)ccc4n3)nn2)c2cn[nH]c12` [Example 307, N-(cyclohexylmethyl)-1-[2-[[4-(7-fluoro-1H-indazol-4-yl)triazol-1-yl]methyl]imidazo[1,2-a]pyridin-6-yl]methanamine]: the IC50 with MOLM-13 cells was 3680 nM; in the experiment on Caov-3 cells, 1770 nM; at METTL3/14 (setting [1]), 6.72 nM.

As for `c1cc(-c2cn(Cc3cn4cc(CNCC5CCC5)ccc4n3)cn2)c2cn[nH]c2c1` [Example 339, N-(cyclobutylmethyl)-1-[2-[[4-(1H-indazol-4-yl)imidazol-1-yl]methyl]imidazo[1,2-a]pyridin-6-yl]methanamine], the half-inhibitory concentration (IC50) with MOLM-13 cells came to 3070 nM; in the experiment with Caov-3 cells, 849 nM; at METTL3/14 (setting [1]) it was 10.1 nM.

For the molecule `N#Cc1cc(-c2cn(Cc3cn4cc(CNCC5CCC5)ccc4n3)nn2)c2cn[nH]c2c1` [Example 338, 4-{1-[(6-{[(cyclobutylmethyl)amino]methyl}imidazo[1,2-a]pyridin-2-yl)methyl]-1H-1,2,3-triazol-4-yl}-1H-indazole-6-carbonitrile], the IC50 was 1190 nM in the experiment on MOLM-13 cells, 1110 nM in the experiment with Caov-3 cells and 7.49 nM at METTL3/14 (setting [1]).

As to `O=C(NCc1cn2cc(CNCC34CC(F)(C3)C4)ccc2n1)c1cc(=O)n2ccccc2n1` [Compound 276, N-[[6-[[(3-fluoro-1-bicyclo[1.1.1]pentanyl)methylamino]methyl]imidazo[1,2-a]pyridin-2-yl]methyl]-4-oxo-pyrido[1,2-a]pyrimidine-2-carboxamide], the IC50 in the experiment on MOLM-13 cells was 657 nM; in the experiment with Caov-3 cells, 248 nM; on METTL3/14 (setting [1]), 6.1 nM.

For `Clc1cc(-c2cn(Cc3cn4cc(CNCC5CCC5)ccc4n3)nn2)c2cn[nH]c2c1` [Example 302, 1-[2-[[4-(6-chloro-1H-indazol-4-yl)triazol-1-yl]methyl]imidazo[1,2-a]pyridin-6-yl]-N-(cyclobutylmethyl)methanamine], the IC50 is 629 nM in the experiment on MOLM-13 cells, 211 nM with Caov-3 cells and at most 4.35 nM at METTL3/14.

For the molecule `c1cc(-c2cn(Cc3cn4cc(CNCC5CCC5)ccc4n3)nn2)c2cn[nH]c2c1` [Example 327, N-(cyclobutylmethyl)-1-[2-[[4-(1H-indazol-4-yl)triazol-1-yl]methyl]imidazo[1,2-a]pyridin-6-yl]methanamine], the figures for the IC50 in the experiment on MOLM-13 cells, in the experiment on Caov-3 cells and at METTL3/14 (setting [1]) were 1620 nM, 572 nM and 5.78 nM, respectively.

In the case of `O=C(NCc1cn2cc(CNCC3CCC3)ccc2n1)c1cc(=O)n2ccccc2n1` [Example 212, N-[[6-[(cyclobutylmethylamino)methyl]imidazo[1,2-a]pyridin-2-yl]methyl]-4-oxo-pyrido[1,2-a]pyrimidine-2-carboxamide], the IC50 in the experiment with MOLM-13 cells was 1820 nM; in the experiment with Caov-3 cells it was 320 nM; on METTL3/14 (5 nM METTL3/14, 0.2 μM RNA substrate, 0.5 μM SAM, lower limit of the assay IC50=5 nM, Compounds 63-265), 6.25 nM.

As to `FC1(F)CC(CNCc2ccc3nc(Cc4cn(-c5cccc6[nH]ncc56)nn4)cn3c2)C1` [Example 337, [(3,3-difluorocyclobutyl)methyl][(2-{[1-(1H-indazol-4-yl)-1H-1,2,3-triazol-4-yl]methyl}imidazo[1,2-a]pyridin-6-yl)methyl]amine], the IC50 in the experiment on MOLM-13 cells came to 5170 nM; with Caov-3 cells, 3210 nM; at METTL3/14 (setting [1]), 16.3 nM.

With `COc1cc(-c2cn(Cc3cn4cc(CNCC5(OC)CCC5)ccc4n3)nn2)c2cn[nH]c2c1` [Example 343, N-[(1-methoxycyclobutyl)methyl]-1-[2-[[4-(6-methoxy-1H-indazol-4-yl)triazol-1-yl]methyl]imidazo[1,2-a]pyridin-6-yl]methanamine], the IC50 with MOLM-13 cells is 930 nM; in the experiment on Caov-3 cells, 554 nM; on METTL3/14 (setting [1]), 6.1 nM.

With `COc1cc(-c2cn(Cc3cn4cc(CNCC5(O)CCC5)ccc4n3)nn2)c2cn[nH]c2c1` [Example 269, 1-[[[2-[[4-(6-methoxy-1H-indazol-4-yl)triazol-1-yl]methyl]imidazo[1,2-a]pyridin-6-yl]methylamino]methyl]cyclobutanol], the IC50 with MOLM-13 cells is 1390 nM; with Caov-3 cells it was 692 nM; at METTL3/14 (setting [1]), 8.05 nM.

Take `COc1ccc2[nH]ncc2c1-c1cn(Cc2cn3cc(CNCC4CCC4)ccc3n2)nn1` [Example 271, N-(cyclobutylmethyl)-1-[2-[[4-(5-methoxy-1H-indazol-4-yl)triazol-1-yl]methyl]imidazo[1,2-a]pyridin-6-yl]methanamine]: the values for the IC50 with MOLM-13 cells, in the experiment with Caov-3 cells and on METTL3/14 (setting [1]) were 1170 nM, 558 nM and 6.1 nM, respectively.

For the molecule `COc1cc(-c2cn(Cc3cn4cc(CNCC5CCC5)ccc4n3)nn2)c2cn[nH]c2c1` [Example 270, N-(cyclobutylmethyl)-1-[2-[[4-(6-methoxy-1H-indazol-4-yl)triazol-1-yl]methyl]imidazo[1,2-a]pyridin-6-yl]methanamine], the figures for the IC50 in the experiment on MOLM-13 cells, with Caov-3 cells and at METTL3/14 were 431 nM, 161 nM and at most 3.63 nM, respectively.
